Patent US6737383B1, “Herbicidal oxadiazolidines” (priority 1999, dated 2004)

Key:
purple nutsedge = assay: Test B pre/postemergence purple nutsedge; assay type: in vivo, Cyperus rotundus
Procedure, shortened: (§1)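 Response is a visual 0-to-10 score relative to untreated plants, where 0 means no effect and 10 means complete control, taken twelve to sixteen days after application. Treatments went onto soil at planting and onto foliage of 1- to 4-leaf plants, using a surfactant-containing non-phytotoxic solvent.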

pigweed = assay: Test B pre/postemergence pigweed; assay type: in vivo, Amaranthus retroflexus
Procedure, shortened: as §1

sugar beet = assay: Test B pre/postemergence sugar beet; assay type: in vivo, Beta vulgaris
Procedure, shortened: as §1

bamyardgrass = assay: Test B flood test barnyardgrass; assay type: in vivo, Echinochloa crus-galli
Procedure, shortened: (§2)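 Each value is a visual injury score relative to controls, with 10 meaning complete control and 0 no effect. Evaluation took place twelve to sixteen days after the 2-leaf-stage plants were treated and kept in the greenhouse.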

duck salad = assay: Test B flood test duck salad; assay type: in vivo, Heteranthera limosa
Procedure, shortened: as §2

rice = assay: Test B flood test rice; assay type: in vivo, Oryza sativa
Procedure, shortened: as §2

wheat = assay: Test B pre/postemergence wheat; assay type: in vivo, Triticum aestivum
Procedure, shortened: as §1

giant foxtail = assay: Test B pre/postemergence giant foxtail; assay type: in vivo, Setaria faberii
Procedure, shortened: as §1

corn = assay: Test B pre/postemergence corn; assay type: in vivo, Zea mays
Procedure, shortened: as §1

surinam grass = assay: Test B pre/postemergence surinam grass; assay type: in vivo, Brachiaria decumbens
Procedure, shortened: as §1

smallflower flatsedge = assay: Test B flood test smallflower flatsedge; assay type: in vivo, Cyperus difformis
Procedure, shortened: as §2

rape = assay: Test B pre/postemergence rape; assay type: in vivo, Brassica napus
Procedure, shortened: as §1

crabgrass = assay: Test B pre/postemergence crabgrass; assay type: in vivo, Digitaria sanguinalis
Procedure, shortened: as §1

soybean = assay: Test B pre/postemergence soybean; assay type: in vivo, Glycine max
Procedure, shortened: as §1

blackgrass = assay: Test B pre/postemergence blackgrass; assay type: in vivo, Alopecurus myosuroides
Procedure, shortened: as §1

cocklebur = assay: Test B pre/postemergence cocklebur; assay type: in vivo, Xanthium strumarium
Procedure, shortened: as §1

[1] = Postemergence, Rate 62 g/ha, scale 0 to 10, 0 is no effect, 10 is complete control
[2] = Postemergence, Rate 250 g/ha, scale 0 to 10, 0 no effect, 10 complete control
[3] = Preemergence, Rate 62 g/ha, scale 0 to 10, 0 is no effect, 10 is complete control
[4] = Preemergence, Rate 125 g/ha, scale 0 to 10 (0 no effect, 10 complete control)
[5] = Preemergence, Rate 250 g/ha, scale of 0 to 10 where 0 is no effect and 10 is complete control
[6] = Preemergence, Rate 500 g/ha, scale 0 (no effect) to 10 (complete control)
[7] = Rate 125 g/ha, Postemergence, scale 0 to 10, 0 no effect, 10 complete control
[8] = Rate 500 g/ha, Postemergence, 0 to 10 scale (0 no effect, 10 complete control)
[9] = Rate 125 g/ha, Postemergence section (flood test species), scale 0 to 10, 0 no effect, 10 complete control
[10] = Rate 500 g/ha, Postemergence section of Table B, 0 to 10 scale (0 no effect, 10 complete control)
[11] = flood test, listed under Postemergence, Rate 250 g/ha, scale 0 to 10, 0 no effect, 10 complete control

## CC(C)N(C(=O)n1oc(=O)n(-c2ccccc2)c1=O)c1ccc(F)cc1 [Compound 38]
Purple nutsedge; [1]
  Nutsedge plant response rating: 0
Purple nutsedge; [2]
  Nutsedge plant response rating: 0
Purple nutsedge; [3]
  Plant response rating, Nutsedge: 0
Purple nutsedge; [4]
  Plant response rating, Nutsedge: 0
Purple nutsedge; [5]
  Plant response rating, Nutsedge: 0
Purple nutsedge; [6]
  Nutsedge plant response rating: 0
Purple nutsedge; [7]
  Nutsedge plant response rating: 0
Purple nutsedge; [8]
  Nutsedge plant response rating: 0
pigweed; [1]
  Redroot pigweed plant response rating: 0
pigweed; [2]
  Redroot pigweed plant response rating: 0
pigweed; [3]
  Plant response rating, Redroot pigweed: 2
pigweed; [4]
  Plant response rating, Redroot pigweed: 10
pigweed; [5]
  Plant response rating, Redroot pigweed: 10
pigweed; [6]
  Redroot pigweed plant response rating: 10
pigweed; [7]
  Redroot pigweed plant response rating: 0
pigweed; [8]
  Redroot pigweed plant response rating: 0
Sugar beet; [1]
  Sugarbeets plant response rating: 0
Sugar beet; [2]
  Sugarbeets plant response rating: 0
Sugar beet; [3]
  Plant response rating, Sugarbeets: 0
Sugar beet; [4]
  Plant response rating, Sugarbeets: 0
Sugar beet; [5]
  Plant response rating, Sugarbeets: 2
Sugar beet; [6]
  Sugarbeets plant response rating: 6
Sugar beet; [7]
  Sugarbeets plant response rating: 0
bamyardgrass; [1]
  Barnyardgrass plant response rating: 0
bamyardgrass; [9]
  Barnyardgrass plant response rating: 0
bamyardgrass; [10]
  Barnyardgrass plant response rating: 0
bamyardgrass; [11]
  Barnyardgrass plant response rating: 0
Duck salad; [1]
  Ducksalad plant response rating: 0
Duck salad; [10]
  Ducksalad plant response rating: 0
Duck salad; [11]
  Ducksalad plant response rating: 0
rice; [1]
  Rice plant response rating: 0
rice; [9]
  Rice plant response rating: 0
rice; [10]
  Rice plant response rating: 0
rice; [11]
  Rice plant response rating: 0
wheat; [1]
  Wheat plant response rating: 0
wheat; [2]
  Wheat plant response rating: 0
wheat; [3]
  Plant response rating, Wheat: 0
wheat; [4]
  Plant response rating, Wheat: 0
wheat; [5]
  Plant response rating, Wheat: 0
wheat; [6]
  Wheat plant response rating: 0
wheat; [7]
  Wheat plant response rating: 0
Giant foxtail; [1]
  Giant foxtail plant response rating: 0
Giant foxtail; [2]
  Giant foxtail plant response rating: 4
Giant foxtail; [3]
  Plant response rating, Giant foxtail: 10
Giant foxtail; [4]
  Plant response rating, Giant foxtail: 10
Giant foxtail; [5]
  Plant response rating, Giant foxtail: 10
Giant foxtail; [6]
  Giant foxtail plant response rating: 10
Giant foxtail; [7]
  Giant foxtail plant response rating: 2
Giant foxtail; [8]
  Giant foxtail plant response rating: 8
corn; [1]
  Corn plant response rating: 0
corn; [2]
  Corn plant response rating: 0
corn; [3]
  Plant response rating, Corn: 0
corn; [4]
  Plant response rating, Corn: 0
corn; [5]
  Plant response rating, Corn: 0
corn; [6]
  Corn plant response rating: 0
corn; [7]
  Corn plant response rating: 0
corn; [8]
  Corn plant response rating: 0
Surinam grass; [1]
  B. signalgrass plant response rating: 0
Surinam grass; [2]
  B. signalgrass plant response rating: 0
Surinam grass; [3]
  Plant response rating, B. signalgrass: 3
Surinam grass; [4]
  Plant response rating, B. signalgrass: 4
Surinam grass; [5]
  Plant response rating, B. signalgrass: 8
Surinam grass; [6]
  B. signalgrass plant response rating: 8
Surinam grass; [7]
  B. signalgrass plant response rating: 0
Surinam grass; [8]
  B. signalgrass plant response rating: 0
Smallflower flatsedge; [1]
  S. Flatsedge plant response rating: 0
Smallflower flatsedge; [9]
  S. Flatsedge plant response rating: 0
Smallflower flatsedge; [11]
  S. Flatsedge plant response rating: 0
rape; [1]
  Rape plant response rating: 0
rape; [2]
  Rape plant response rating: 0
rape; [3]
  Plant response rating, Rape: 0
rape; [4]
  Plant response rating, Rape: 0
rape; [6]
  Rape plant response rating: 0
rape; [7]
  Rape plant response rating: 0
rape; [8]
  Rape plant response rating: 0
crabgrass; [1]
  Crabgrass plant response rating: 0
crabgrass; [2]
  Crabgrass plant response rating: 8
crabgrass; [3]
  Plant response rating, Crabgrass: 2
crabgrass; [4]
  Plant response rating, Crabgrass: 5
crabgrass; [5]
  Plant response rating, Crabgrass: 10
crabgrass; [6]
  Crabgrass plant response rating: 10
crabgrass; [7]
  Crabgrass plant response rating: 7
crabgrass; [8]
  Crabgrass plant response rating: 9
soybean; [1]
  Soybean plant response rating: 0
soybean; [2]
  Soybean plant response rating: 0
soybean; [3]
  Plant response rating, Soybean: 0
soybean; [4]
  Plant response rating, Soybean: 0
soybean; [5]
  Plant response rating, Soybean: 0
soybean; [6]
  Soybean plant response rating: 2
soybean; [7]
  Soybean plant response rating: 0
blackgrass; [1]
  Blackgrass plant response rating: 0
blackgrass; [2]
  Blackgrass plant response rating: 7
blackgrass; [3]
  Plant response rating, Blackgrass: 4
blackgrass; [4]
  Plant response rating, Blackgrass: 6
blackgrass; [5]
  Plant response rating, Blackgrass: 10
blackgrass; [6]
  Blackgrass plant response rating: 10
blackgrass; [7]
  Blackgrass plant response rating: 3
blackgrass; [8]
  Blackgrass plant response rating: 8
cocklebur; [1]
  Cocklebur plant response rating: 0
cocklebur; [2]
  Cocklebur plant response rating: 1
cocklebur; [3]
  Plant response rating, Cocklebur: 0
cocklebur; [4]
  Plant response rating, Cocklebur: 0
cocklebur; [6]
  Cocklebur plant response rating: 0
cocklebur; [7]
  Cocklebur plant response rating: 0
cocklebur; [8]
  Cocklebur plant response rating: 1
